Converted amounts (≈) assume the structure as drawn. Where a SMILES comes first, the peptide text is derived from it. [ ]: non-standard residue; d: D form. Aib = CC(C)(N)C(=O)O

The nature of data set [1]: Aqueous solubility of compound vs zinc concentration. The settings on record: aqueous saline, pH 7.0, room temperature. The class given is physicochemical. As to the method: Compounds that may advantageously be used to practice the invention can be and were tested to determine their solubility in pH 7 water at different zinc concentrations using the following procedure.
A stock zinc solution was prepared by dissolving ZnCl2 in de-ionized water to a concentration of 100 mg/ml and adjusting the pH to 2.7 using HCl. Solutions having various ZnCl2 concentrations (“Zn Test Solutions”) were prepared by making appropriate dilutions of the stock solution.
1 mg of the compound of Example 1 was dissolved in 250 μl of each Zn Test Solution to yield a solution having 4 mg/ml of the Example 1 compound. […] The precipitation solution was centrifuged and the mother liquor analyzed using HPLC. The UV absorption area of test compound peak was measured and the concentration of the test compound in the mother liquor was determined via comparison to a calibration curve.
As a representative example of a compound that may be used to practice the invention, the compound of Example 1 was tested in the immediately foregoing assay and the following results were obtained (aqueous saline, pH 7.0, room temperature): […]

The test system of data set [2] is adult male Sprague-Dawley rats. Nature of the data set: In vivo assay G.1/G.2: insulin secretion after iv glucose challenge following sc injection. On the set-up: species or system rat. The settings on record: clear solution pH 4.0 with zinc (Preparation D), sc 75 μg/kg, fasted rats, iv glucose 1 g/kg at 0.25-24 h. On the procedure: The day prior to the experiment, adult male Sprague-Dawley rats (Taconic, Germantown, N.Y.) that weighed approximately 300-350g were implanted with a right atrial jugular cannula under chlorohydrate anesthetic. The rats were then fasted for 18 hours prior to the injection of the appropriate test composition or vehicle control at time 0. The rats continued to be fasted throughout the entire experiment.
At time zero the rats were injected subcutaneously (sc) either with (a) the compound of Example 1 (Aib^8,^35, Arg^26,^34, Phe^31)hGLP-1(7-36)NH2) at pH 4.0 as a clear solution (i.e., the solution of Preparation D.), or (b) the compound of Example 1 at pH 7.0 as a suspension or gel (i.e., the suspension or gel of Preparation E.). […] At the appropriate time after the sc injections a 500 μl blood sample was withdrawn via the intravenous (iv) cannula and the rats were given an iv glucose challenge to test for the presence of enhanced insulin secretion. The times of the glucose challenge were 0.25, 1, 6, 12 and 24 hours post-compound injection. After the initial blood sample was withdrawn glucose (1 g/kg) was injected iv and flushed in with 500 μl heparinized saline (10U/mL). […] The amount of insulin in each sample was determined using a rat insulin enzyme-linked immunosorbant assay (ELISA) kit (American Laboratory Products Co., Windham, N.H.). […]

As to `CC[C@H](C)[C@H](NC(=O)[C@H](Cc1ccccc1)NC(=O)[C@H](CCC(=O)O)NC(=O)[C@H](CCCNC(=N)N)NC(=O)[C@H](C)NC(=O)[C@H](C)NC(=O)[C@H](CCC(N)=O)NC(=O)CNC(=O)[C@H](CCC(=O)O)NC(=O)[C@H](CC(C)C)NC(=O)[C@H](Cc1ccc(O)cc1)NC(=O)[C@H](CO)NC(=O)[C@H](CO)NC(=O)[C@@H](NC(=O)[C@H](CC(=O)O)NC(=O)[C@H](CO)NC(=O)[C@@H](NC(=O)[C@H](Cc1ccccc1)NC(=O)[C@@H](NC(=O)CNC(=O)[C@H](CCC(=O)O)NC(=O)C(C)(C)NC(=O)[C@@H](N)Cc1c[nH]cn1)[C@@H](C)O)[C@@H](C)O)C(C)C)C(=O)N[C@@H](C)C(=O)N[C@@H](Cc1ccccc1)C(=O)N[C@@H](CC(C)C)C(=O)N[C@H](C(=O)N[C@@H](CCCNC(=N)N)C(=O)NC(C)(C)C(=O)N[C@@H](CCCNC(=N)N)C(N)=O)C(C)C` [Example 1, (Aib^8,^35, Arg^26,^34, Phe^31)hGLP-1(7-36)NH2] (H-H[Aib]EGTFTSDVSSYLEGQAAREFIAFLVR[Aib]R-NH2), the solubility in data set [1] (pH 7, ZnCl2 concentration 0 μg/mL) was 53.9 µg/mL (≈ 16.1 µM); in data set [1] (pH 7, ZnCl2 concentration 80 μg/mL), 5.9 µg/mL (≈ 1.76 µM); in data set [1] (pH 7, ZnCl2 concentration 500 μg/mL) it was 5.6 µg/mL (≈ 1.67 µM); in data set [1] (pH 7, ZnCl2 concentration 1000 μg/mL), 9.7 µg/mL (≈ 2.89 µM); in data set [1] (pH 7, ZnCl2 concentration 1500 μg/mL), 9.7 µg/mL (≈ 2.89 µM); in data set [1] (pH 7, ZnCl2 concentration 2500 μg/mL) it was 11 µg/mL (≈ 3.28 µM).
As to (Aib^8,35)hGLP1(7-36)NH2, the “duration of sustained insulin-enhancing activity inducible by glucose injection” value in data set [2] came out at 24 h.

These data come from patent US7521527B2 (Societe de Conseils de Recherches et d'Applications …, priority 2003, dated 2009).
